Data from patent US20120076859A1, “Targeted Lung Delivery of Citrulline and/or Another Nitric Oxide Precursor and a Method for Treatment of Pulmonary Deficiency of Nitric Oxide in Cystic Fibrosis and Other Pulmonary Diseases” (ACTIVAERO GMBH, priority 2010, published 2012).

Tests used:
[1] = test system: exhaled nitric oxide / pulmonary function; details: cystic fibrosis patients, cited from earlier work
[2] = single oral dose; cystic fibrosis and healthy subjects; cited from earlier work
[3] = inhalation of arginine solution; cystic fibrosis patients; cited from earlier work
[4] = test system: exhaled nitric oxide; details: inhaled L-arginine; healthy and asthmatic subjects; cited from earlier work
[5] = test system: isolated lungs of chronically hypoxic newborn pigs; details: perfusion of isolated lungs; cited from earlier work
[6] = Storage stability of ready to use formulation in LDPE vials; type: physicochemical; details: room temperature; LDPE vials covered with aluminum overwrap
Protocol: In alternative, the liquid form of the highly concentrated citrulline or another nitric oxide precursor may also be conveniently supplied as a ready to use formulation stored and supplied in 1 mL “Blow-fill-Seal” vial, made of plastic polyethylene material, such as low density polyethylene (LDPE). The selected material for such ready to use formulation prevents absorption of the active component onto the plastic walls of the vial, which is a common occurrence with other plastic materials. The 1 mL fill volume of the vial provides an exact amount of active component that is safe and efficacious for the patient convenience provided, of course, that the therapeutically effective amount of the active component can be supplied in 1 mL dilution. In the above described type of vials covered with an aluminum overwrap, citrulline or nitric oxide precursors for inhalation are stable for at least 9 months and 12 months, respectively, at room temperature. There is no loss of strength under these conditions. At accelerated conditions where the vials are exposed to a temperature of 40° C. and 75% relative humidity, all formulations for extended shelf-life will be shown to retain their full activity for at least 6 months and preferably or one year.

| stability (shelf-life) [6] | Compound | plasma amino acid concentration of L-arginine ([1]; after single inhalation) | FEV1 ([1]; single inhalation) | exhaled nitric oxide concentrations ([1]; single inhalation) | plasma L-arginine concentration [2] | adverse effects of inhalation therapy [3] | exhaled nitric oxide [4] | time of maximum effect on exhaled nitric oxide [4] | nitric oxide production [5] |
| --- | --- | --- | --- | --- | --- | --- | --- | --- | --- |
|  | N=C(N)NCCC[C@H](N)C(=O)O [L-arginine] | did not change significantly over time | sustained improvement of FEV1 | significantly increasing exhaled nitric oxide concentrations | significant increase of plasma L-arginine concentration | cough, airway inflammation and severe deterioration of the patients general conditions | increased exhaled nitric oxide in a dose-dependent fashion | 60 min | increase of nitric oxide production |
| at least 9 months | NC(=O)NCCC[C@H](N)C(=O)O [citrulline, L-(+)-2-amino-5-ureidovaleric acid] |  |  |  |  |  |  |  |  |
